According to PubChem BioAssay AID2060511 (Molecular Pharmacology Branch, DTP, NCI, 2025):
pIC50: −log10 of the molar value.

Tested on: 422866-222-R5-J1-PDC spheroids with HUVEC/MSC, viability
Test: Anticancer human tumor 422866-222-R5-J1-PDC patient-derived pancreatic adenocarcinoma cell line growth inhibition [GQUAD]
Conditions: for pIC50: curve of first compound; for viability, T/C: stronger effect = lower value
In short: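 Multi-cell-type spheroids of tumor cells with HUVEC and mesenchymal stem cells, treated with drug combinations. Concentrations descend in half-log steps from near clinical Cmax, or from 10 microM where Cmax is unknown; viability read-out.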

[1] = second compound 0.0316 µM, first compound 0.0316 µM
[2] = second compound 0.0316 µM, first compound 0.1 µM
[3] = second compound 0.0316 µM, first compound 0.316 µM
[4] = second compound 0.0316 µM, first compound 1 µM
[5] = second compound 0.0316 µM, first compound 3.16 µM
[6] = second compound 0.0316 µM, first compound 10 µM
[7] = second compound 0.1 µM, first compound 0.0316 µM
[8] = second compound 0.1 µM, first compound 0.1 µM
[9] = second compound 0.1 µM, first compound 0.316 µM
[10] = second compound 0.1 µM, first compound 1 µM
[11] = second compound 0.1 µM, first compound 3.16 µM
[12] = second compound 0.1 µM, first compound 10 µM
[13] = second compound 0.316 µM, first compound 0.0316 µM
[14] = second compound 0.316 µM, first compound 0.1 µM
[15] = second compound 0.316 µM, first compound 0.316 µM
[16] = second compound 0.316 µM, first compound 1 µM
[17] = second compound 0.316 µM, first compound 3.16 µM
[18] = second compound 0.316 µM, first compound 10 µM
[19] = second compound 1 µM, first compound 0.0316 µM
[20] = second compound 1 µM, first compound 0.1 µM
[21] = second compound 1 µM, first compound 0.316 µM
[22] = second compound 1 µM, first compound 1 µM
[23] = second compound 1 µM, first compound 3.16 µM
[24] = second compound 1 µM, first compound 10 µM
[25] = second compound 3.16 µM, first compound 0.0316 µM
[26] = second compound 3.16 µM, first compound 0.1 µM
[27] = second compound 3.16 µM, first compound 0.316 µM
[28] = second compound 3.16 µM, first compound 1 µM
[29] = second compound 3.16 µM, first compound 3.16 µM
[30] = second compound 3.16 µM, first compound 10 µM
[31] = second compound 10 µM, first compound 0.0316 µM
[32] = second compound 10 µM, first compound 0.1 µM
[33] = second compound 10 µM, first compound 0.316 µM
[34] = second compound 10 µM, first compound 1 µM
[35] = second compound 10 µM, first compound 3.16 µM
[36] = second compound 10 µM, first compound 10 µM
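Further: spheroids exposed to compounds for seven days before reading.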
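Wherever viability, T/C is given: percent viability relative to DMSO vehicle control taken as 100%.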

SMILES: COc1ncnc(C2CC2)c1-c1ncc2cnn(Cc3ccc(-c4nc(C(F)(F)F)cn4C(C)C)cc3)c2n1 + CN(C)c1ccc(Nc2c3ccc(NC(=O)CCN4CCCC4)cc3nc3cc(NC(=O)CCN4CCCC4)ccc23)cc1
- pIC50 (second compound 0.0316 µM): < 5.00
- pIC50 (second compound 0.1 µM): < 5.00
- pIC50 (second compound 0.316 µM): < 5.00
- pIC50 (second compound 1 µM): < 5.00
- pIC50 (second compound 3.16 µM): < 5.00
- pIC50 (second compound 10 µM): < 5.00
- viability, T/C [1]: 92.7%
- viability, T/C [2]: 88.3%
- viability, T/C [3]: 124%
- viability, T/C [4]: 93%
- viability, T/C [5]: 90%
- viability, T/C [6]: 104%
- viability, T/C [7]: 116%
- viability, T/C [8]: 104%
- viability, T/C [9]: 109%
- viability, T/C [10]: 94.9%
- viability, T/C [11]: 100%
- viability, T/C [12]: 100%
- viability, T/C [13]: 104%
- viability, T/C [14]: 89.8%
- viability, T/C [15]: 100%
- viability, T/C [16]: 94.3%
- viability, T/C [17]: 106%
- viability, T/C [18]: 100%
- viability, T/C [19]: 90.7%
- viability, T/C [20]: 92.2%
- viability, T/C [21]: 101%
- viability, T/C [22]: 90.9%
- viability, T/C [23]: 97.1%
- viability, T/C [24]: 84.5%
- viability, T/C [25]: 85.8%
- viability, T/C [26]: 102%
- viability, T/C [27]: 101%
- viability, T/C [28]: 92.9%
- viability, T/C [29]: 103%
- viability, T/C [30]: 69.9%
- viability, T/C [31]: 98.6%
- viability, T/C [32]: 109%
- viability, T/C [33]: 104%
- viability, T/C [34]: 69.3%
- viability, T/C [35]: 86.8%
- viability, T/C [36]: 58%

SMILES: O=C(NO)c1cnc(N2CCN(S(=O)(=O)c3ccc4ccccc4c3)CC2)nc1 + CN(C)c1ccc(Nc2c3ccc(NC(=O)CCN4CCCC4)cc3nc3cc(NC(=O)CCN4CCCC4)ccc23)cc1
- pIC50 (second compound 0.0316 µM): 6.10
- pIC50 (second compound 0.1 µM): 6.03
- pIC50 (second compound 0.316 µM): 6.08
- pIC50 (second compound 1 µM): 6.07
- pIC50 (second compound 3.16 µM): 6.25
- pIC50 (second compound 10 µM): 5.95
- viability, T/C [1]: 93.7%
- viability, T/C [2]: 115%
- viability, T/C [3]: 79.9%
- viability, T/C [4]: 37.4%
- viability, T/C [5]: 29.4%
- viability, T/C [6]: 1.05%
- viability, T/C [7]: 100%
- viability, T/C [8]: 101%
- viability, T/C [9]: 89.8%
- viability, T/C [10]: 38.5%
- viability, T/C [11]: 32.1%
- viability, T/C [12]: 1.23%
- viability, T/C [13]: 98%
- viability, T/C [14]: 111%
- viability, T/C [15]: 67.4%
- viability, T/C [16]: 37.4%
- viability, T/C [17]: 37.1%
- viability, T/C [18]: 1.09%
- viability, T/C [19]: 92.5%
- viability, T/C [20]: 92.9%
- viability, T/C [21]: 66.8%
- viability, T/C [22]: 38.1%
- viability, T/C [23]: 34%
- viability, T/C [24]: 1.34%
- viability, T/C [25]: 87.6%
- viability, T/C [26]: 94.6%
- viability, T/C [27]: 54.5%
- viability, T/C [28]: 30.7%
- viability, T/C [29]: 36.1%
- viability, T/C [30]: 1.79%
- viability, T/C [31]: 89.6%
- viability, T/C [32]: 88.2%
- viability, T/C [33]: 72.2%
- viability, T/C [34]: 38.4%
- viability, T/C [35]: 41.3%
- viability, T/C [36]: 1.96%
